Data published in patent US8608842B2, “Infrared absorbing composition, infrared absorbing ink, recorded article, image recording method, and image detecting method” (FUJIFILM Corporation, priority 2010, dated 2013).

How the values were obtained:
Type in all cases: physicochemical
[1] = Solubility of IR coloring material in toluene at 25° C.; conditions: toluene, 25° C.
Description: Specifics are as follows.
First, a tetrahydrofuran (THF) solution prepared by adding the IR coloring material to TI-IF is measured by a spectrophotometer and a calibration curve is constructed. Next, a liquid is prepared by adding the IR coloring material to toluene to the level that there is a part of the coloring material left undissolved. The resulting liquid is subjected to ultrasonication for 10 minutes while being maintained at 25° C., and allowed to stand overnight at 25° C. The THF solution obtained after the standing is filtered using a 0.2 μm filter. The filtrate is diluted so that it falls within the linear range of the calibration curve, the absorbance is measured, and quantification is made using the calibration curve.
The solubility shown in Table 1 was measured according to the method described below. Specifics are as follows.
First, the THF solution prepared by adding the IR coloring material to tetrahydrofuran (THF) was measured by a spectrophotometer, and the calibration curve was established. Next, a liquid was prepared by adding the IR coloring material to toluene to the level that there is a part of coloring material left undissolved. The resulting liquid was subjected to ultrasonication for 10 minutes while being kept at 25° C., and allowed to stand overnight at 25° C. The THF solution obtained after the standing was filtered using a 0.2 μm filter. The filtrate was diluted so that it falls within the linear range of the calibration curve, and the absorbance was measured. Based on the measured value, the solubility was quantified using the calibration curve.

[2] = Bar code pattern reading (PCS) of printed article before and after xenon light irradiation (light resistance); conditions: ink solvent toluene/methyl isobutyl ketone = 70/30; xenon light of 70,000 lux, 200 hours
Description: By mixing the components of the composition shown below, the infrared absorbing printing ink (1) was prepared.
By using each of the infrared absorbing printing ink obtained above, a bar code pattern was formed on a regular paper (trade name: MP-120, manufactured by PLUS Corporation), i.e., a base paper, by Gravure printing.
Subsequently, on the formed bar code pattern, another bar code pattern was additionally formed by using the infrared absorbing ink (2) having the composition shown below.
Next, on top of the bar code patterns formed by disposing two layers, three kinds of process inks having infrared transmittance (FDOL Yellow, FDOL Magenta, and FDOL Cyan, manufactured by TOYO INK MFG. CO., LTD. (trade names, manufactured by TOYO INK MFG. CO., LTD.) were further applied by Gravure printing to form a colored layer made of three visible colors (cyan, magenta, and yellow). As a result, a printed article having a bar code pattern disposed inside the matter was produced.
Two kinds of semiconductor laser beam having wavelengths of 830 nm and 905 nm respectively were irradiated onto the thus obtained printed article, and the detection was made by using a filter which cuts off the emission light having wavelength of 950 nm or less. As a result, it was possible to detect the pattern formed by the infrared absorbing ink.
Subsequently, xenon light of 70,000 lux was irradiated continuously for 200 hours onto the printed article by using a xenon lamp. After that, the reading state of the bar code pattern after the irradiation was evaluated. For the evaluation, PCS (print•contrast•signal) of 0.6 or more was evaluated as “good,” and PCS (print•contrast•signal) of less than 0.6 was evaluated as “bad.” The evaluation results are shown in Table 2 below.
The printed article was prepared in the same manner as Example 1 except that the solvent (a mixture solvent of toluene and methyl isobutyl ketone) in the composition of the infrared absorbing ink (1) and (2) is replaced with n-octane (SP value: 7.6), butyl acetate (SP value: 8.5), or isopropyl alcohol (IPA; SP values: 11.5), and evaluated.
The comparative printed article was prepared in the same manner as Example 1 except that the solvent (a mixture solvent of toluene and methyl isobutyl ketone) in the composition of the infrared absorbing ink (1) and (2) is replaced with n-pentane (SP value: 7.0; Example 2) or ethanol (SP value: 12.7; Example 3), and evaluated.

[3] = Ultraviolet curable ink of Example 4: reflected light of mark for copy protection, before and after xenon irradiation; conditions: xenon light of 70,000 lux, 72 hours; variation compared to the value before irradiation
Description: By mixing the components of the composition shown below, an ultraviolet curable ink having an infrared absorbing property was prepared.
By using the ultraviolet curable ink thus obtained, a mark for copy protection was printed on the same base paper as that used in Example 1 by Gravure printing. On top of the printed mark for copy protection, each of the three kinds of a process ink (FDOL Yellow, FDOL Magenta, and FDOL Cyan, trade names, manufactured by TOYO INK MFG. CO., LTD.) was applied as a layer by Gravure printing, or a mixture ink in which the three kinds of a process ink are mixed was applied as a layer by Gravure printing to hide the mark for copy protection, thus obtaining a printed article.
The mark for copy protection that is hidden by the process ink was irradiated with infrared light using a linear sensor (trade name: TCD1500C, manufactured by Toshiba) in which the infrared cut-off filter of linear sensor was replaced with an infrared transmitting filter (trade name: IR83, manufactured by Hoya) as a detection device, and the reflected light was detected simultaneously.
The reflection light intensity in the area of the mark for copy protection at the time of detecting the mark was divided by the reflection light intensity of the area outside the mark for copy protection. The resulting value of the comparative infrared absorbing agent A was set to 1, and a ratio of the resulting value with respect to the resulting value of the comparative infrared absorbing agent A was calculated for each compound.
In addition, the obtained printed article was irradiated continuously with xenon light of 70,000 lux for 72 hours by using a Xenon lamp. After the irradiation, similar to above, the reflection light intensity of the area of the mark for copy protection was divided by the reflection light intensity of the area outside the mark for copy protection, and the variation ratio [%] compared to the value before the irradiation was calculated to use it as an index for evaluation of light resistance.

**Q.** Which “Solubility [mg/ml] Solvent: toluene” value [1] does the source give for “N,N,N′,N′-tetrakis(p-di-n-butylaminophenyl)-p-phenylene diaminium perchlorate salt [reference compound]” here?
**A.** 32 mg/mL

**Q.** And the Reading after irradiation [2]?
**A.** Bad (PCS (print•contrast•signal) of less than 0.6 was evaluated as “bad.”)

**Q.** And the “Variation amount after irradiation [%]” value [3]?
**A.** 16%
